Consider ten compounds from ChEMBL document CHEMBL1201862, “PubChem BioAssay data set” (2004).

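Test compounds were applied to cells in 96-well plates for 48 hours at 5 doses. GI50 = concentration required for 50% inhibition of growth.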 Activity calls are given as the source filed them. Rule as the data show it: active = GI50 up to about 1.1 µM and inactive = higher.

Test systems include SNB-75; NCI-H460; Hs-578T; OVCAR-3; TK-10; 786-0; SK-MEL-28; BT-549; CCRF-CEM; OVCAR-8; SR; OVCAR-5; HCT-15; NCI/ADR-RES; MDA-MB-231; CAKI-1; NCI-H522; U-251; HCC 2998; NCI-H226.
Common to all, as to test: NCI-60 cell line screen, 48 h

With `CC1OC(OC2C(CO)OC(O[C@H]3CC[C@@]4(C)C(=CC[C@H]5[C@@H]6C[C@@H]7O[C@](O)(CC[C@H](CO)COC8OC(CO)C(O)C(O)C8O)[C@@H](C)[C@@H]7[C@@]6(C)CC[C@@H]54)C3)C(OC3OC(C)C(O)C(O)C3O)C2O)C(O)C(O)C1O` (stereo not given in full), the GI50 in the assay on SNB-75, with NCI-H460, in the assay on Hs-578T, in the assay with OVCAR-3, with TK-10 and in the assay on 786-0 was > 100 µM (inactive) each time. For the same compound, the GI50 in the assay on SK-MEL-28, with BT-549, in the assay with CCRF-CEM, in the assay on OVCAR-8, in the assay on SR and with OVCAR-5 was > 100 µM (inactive) in each case. The GI50 in the assay with HCT-15 is 54 µM; in the assay with NCI/ADR-RES, 91.4 µM (inactive); in the assay on MDA-MB-231 it was > 100 µM (inactive); in the assay with CAKI-1, > 100 µM (inactive); in the assay with NCI-H522 it was > 100 µM (inactive); in the assay on U-251, > 100 µM (inactive). Further, the GI50 with HCC 2998 is > 100 µM (inactive).

In the case of `CN(C)S(=O)(=O)Nc1nnc(S(N)(=O)=O)s1`, the GI50 in the assay on SNB-75, in the assay on NCI-H460, with Hs-578T, in the assay with OVCAR-3, in the assay on NCI-H226 and in the assay with TK-10 was > 100 µM (inactive) throughout. Moreover, the GI50 is > 100 µM (inactive) in the assay on 786-0; > 100 µM (inactive) in the assay with SK-MEL-28; > 100 µM (inactive) in the assay on BT-549; > 100 µM (inactive) in the assay with SR; > 100 µM (inactive) with OVCAR-5; greater than 100 µM with HCT-15. Also, the GI50 in the assay with NCI/ADR-RES, in the assay with MDA-MB-231, in the assay on CAKI-1, in the assay on NCI-H522, with U-251 and in the assay with HCC 2998 was > 100 µM (inactive) in each case.

Regarding `COc1cc(/C=C2\N=C(c3ccccc3)N(/N=C/c3cc4cc(C)ccc4nc3Cl)C2=O)cc(OC)c1OC`, the GI50 in the assay on SNB-75 is 17.1 µM (inactive); in the assay with NCI-H460, 29.4 µM (inactive); with Hs-578T, 29.4 µM (inactive); in the assay with OVCAR-3, 26.5 µM (inactive); in the assay on TK-10, 37.8 µM (inactive); in the assay on 786-0, 60.4 µM (inactive). For the same compound, the GI50 was 91.6 µM (inactive) with SK-MEL-28; 52.2 µM (inactive) with BT-549; 35.1 µM (inactive) in the assay with OVCAR-8; 19.4 µM (inactive) with SR; > 100 µM (inactive) with OVCAR-5; 32.4 µM with HCT-15. Besides, the GI50 with NCI/ADR-RES is 28 µM (inactive); in the assay with MDA-MB-231 it was 23.1 µM (inactive); in the assay on CAKI-1, 61.7 µM (inactive); in the assay on U-251, 18.9 µM (inactive); in the assay with HCC 2998 it was 18.8 µM (inactive).

In the case of `O=C(CSC1=NCCN1)Nc1ccccc1`, the GI50 was 21.5 µM (inactive) in the assay with SNB-75; 31.1 µM (inactive) with NCI-H460; 28.1 µM (inactive) in the assay on Hs-578T; 20.7 µM (inactive) in the assay with OVCAR-3; 19.2 µM (inactive) with TK-10; 16.1 µM (inactive) in the assay with 786-0. Further, the GI50 is 26.3 µM (inactive) in the assay with SK-MEL-28; 24.5 µM (inactive) in the assay with BT-549; 67.9 µM (inactive) in the assay with CCRF-CEM; 29.4 µM (inactive) in the assay on OVCAR-8; 44.3 µM (inactive) in the assay on SR; 29.3 µM (inactive) in the assay on OVCAR-5. For the same compound, the GI50 with HCT-15 was 29.2 µM; in the assay on NCI/ADR-RES it was 26.4 µM (inactive); in the assay on MDA-MB-231, 20.6 µM (inactive); with CAKI-1, 73.8 µM (inactive); in the assay on NCI-H522 it was 19 µM (inactive); with U-251 it was 18.3 µM (inactive). For the same compound, in the assay on HCC 2998, the GI50 was 23.8 µM (inactive).

In the case of `CCOC(=O)Cc1c(C(=O)OCC)[n+]([O-])c2cc(Cl)c(Cl)cc2[n+]1[O-]`, the GI50 in the assay with SNB-75 was 1.53 µM (inactive); with NCI-H460, 1.45 µM (inactive); in the assay on Hs-578T, 2.27 µM (inactive); in the assay on OVCAR-3 it was 1.87 µM (inactive); with TK-10, 1.28 µM (inactive); with 786-0 it was 1.54 µM (inactive). The GI50 with SK-MEL-28 is 4.68 µM (inactive); in the assay with BT-549 it was 2.45 µM (inactive); in the assay on CCRF-CEM it was 3.13 µM (inactive); with OVCAR-8, 2.34 µM (inactive); in the assay with SR it was 0.336 µM (active); with OVCAR-5 it was 2.58 µM (inactive). Moreover, the GI50 in the assay on HCT-15 is 1.42 µM; with NCI/ADR-RES, 2.78 µM (inactive); with MDA-MB-231, 2.69 µM (inactive); in the assay on CAKI-1, 2.97 µM (inactive); with NCI-H522, 1.84 µM (inactive); in the assay with U-251, 2.96 µM (inactive). The GI50 in the assay with HCC 2998 is 1.99 µM (inactive).

Take `COc1cc2c(cc1OC)CC(N=[N+]=[N-])c1cc(OC)c(OC)cc1/C=C\2` (stereo not given): the GI50 with SNB-75 was 16.6 µM (inactive); with NCI-H460, 43.4 µM (inactive); in the assay on Hs-578T, 24 µM (inactive); in the assay with OVCAR-3 it was 53.7 µM (inactive); in the assay with NCI-H226 it was 3.18 µM (inactive); in the assay on TK-10, > 100 µM (inactive). The GI50 is 34.1 µM (inactive) in the assay on 786-0; 89.1 µM (inactive) in the assay with SK-MEL-28; 0.826 µM (active) in the assay with BT-549; 18.4 µM (inactive) in the assay on OVCAR-8; > 100 µM (inactive) in the assay with SR; > 100 µM (inactive) in the assay on OVCAR-5. The GI50 was 40.1 µM with HCT-15; 25.2 µM (inactive) in the assay on NCI/ADR-RES; 30.8 µM (inactive) in the assay on MDA-MB-231; 21 µM (inactive) in the assay on CAKI-1; 50.9 µM (inactive) with NCI-H522; 51.2 µM (inactive) in the assay with U-251. The GI50 with HCC 2998 is 81.7 µM (inactive).

Turning to `Cc1ccc2nc(Cl)c(/C=N/N3C(=O)/C(=C/c4ccc(N(C)C)cc4)N=C3c3ccccc3)cc2c1`, the GI50 is 24 µM (inactive) with SNB-75; 37.5 µM (inactive) with NCI-H460; 40.1 µM (inactive) in the assay on Hs-578T; 13.9 µM (inactive) in the assay on OVCAR-3; > 100 µM (inactive) in the assay on TK-10; > 100 µM (inactive) in the assay with 786-0. Besides, the GI50 is > 100 µM (inactive) in the assay with SK-MEL-28; > 100 µM (inactive) with BT-549; 29.9 µM (inactive) with CCRF-CEM; 41.8 µM (inactive) in the assay on OVCAR-8; 32.6 µM (inactive) in the assay with SR; > 100 µM (inactive) with OVCAR-5. For the same compound, the GI50 is 55.2 µM with HCT-15; 32.7 µM (inactive) in the assay with NCI/ADR-RES; 38.9 µM (inactive) in the assay with MDA-MB-231; > 100 µM (inactive) in the assay on CAKI-1; 26 µM (inactive) with U-251; 66.2 µM (inactive) with HCC 2998.

For `O=C(CC(=O)N(C(=O)c1ccccc1)c1ccc(Cl)cc1)N/N=C\c1cc(/N=N/c2ccccc2Cl)ccc1O`, the GI50 is 12.4 µM (inactive) in the assay on SNB-75; > 100 µM (inactive) in the assay with NCI-H460; 20 µM (inactive) in the assay on Hs-578T; 48 µM (inactive) with OVCAR-3; > 100 µM (inactive) in the assay on NCI-H226; 27.2 µM (inactive) in the assay on TK-10. In addition, the GI50 with 786-0 was 38.1 µM (inactive); in the assay with SK-MEL-28 it was > 100 µM (inactive); in the assay with BT-549, > 100 µM (inactive); in the assay with CCRF-CEM it was 25.1 µM (inactive); in the assay on OVCAR-8 it was > 100 µM (inactive); in the assay with SR, 17.9 µM (inactive). Also, the GI50 in the assay with OVCAR-5 was > 100 µM (inactive); with HCT-15, 75.7 µM; in the assay on NCI/ADR-RES it was > 10 µM (inactive); in the assay with MDA-MB-231, 29.2 µM (inactive); in the assay with CAKI-1, > 100 µM (inactive); with U-251, 39 µM (inactive). Moreover, in the assay on HCC 2998, the GI50 is > 100 µM (inactive).

Take `CC(C)(C)C(=O)C(N)C(=O)C(C)(C)C`: the GI50 in the assay on SNB-75, in the assay with NCI-H460, in the assay with Hs-578T, in the assay on TK-10, with 786-0 and in the assay on SK-MEL-28 was > 100 µM (inactive) each time. For the same compound, the GI50 in the assay on BT-549 was > 100 µM (inactive); in the assay with CCRF-CEM, > 100 µM (inactive); in the assay with OVCAR-8, > 100 µM (inactive); in the assay with SR it was > 100 µM (inactive); in the assay on OVCAR-5, > 100 µM (inactive); with HCT-15, greater than 100 µM. Moreover, the GI50 with NCI/ADR-RES, with MDA-MB-231, in the assay on CAKI-1, in the assay with NCI-H522, in the assay on U-251 and with HCC 2998 was > 100 µM (inactive) in each case.

In the case of `O=S(=O)(O)C1CCC(O)C2NCCCC21` (stereo not given), the GI50 in the assay on SNB-75, in the assay with NCI-H460, in the assay with Hs-578T, in the assay with OVCAR-3, in the assay with NCI-H226 and with TK-10 was > 100 µM (inactive) throughout. In addition, the GI50 with 786-0, in the assay with SK-MEL-28, in the assay on BT-549, in the assay on OVCAR-8, with SR and in the assay with OVCAR-5 was > 100 µM (inactive) throughout. Besides, the GI50 is greater than 100 µM with HCT-15; > 100 µM (inactive) in the assay on NCI/ADR-RES; > 100 µM (inactive) in the assay on MDA-MB-231; > 100 µM (inactive) in the assay with CAKI-1; > 100 µM (inactive) in the assay with NCI-H522; > 100 µM (inactive) in the assay with U-251. In the assay on HCC 2998, the GI50 is > 100 µM (inactive).
